Experiments:
[1] = tested on: GLUTag cells; assay: Calcium flux (Calcium 6) in control-transduced GLUTag cells; type: cell-based, murine; set-up: Mean Diff.: unit not given here; settings: for Mean Diff.: Figure 1B, Ctl
Method: (§1) GLUTag cells were maintained in Dulbecco’s Modified Eagle Medium (DMEM) supplemented with 10% fetal bovine serum and 1% penicillin–streptomycin in a humidified incubator at 37 °C and 5% CO2. For adenovirus transduction, GLUTag cells were seeded into poly-D-lysine coated 96-well plates or 4-chamber slides. The next day, cells were transduced with adenoviruses (100–1250 viral particles per cell at time of seeding) as indicated. After 24–30 h, adenovirus-containing media was changed to serum-free growth media for overnight serum starvation. The following day, GLUTag cells were used for cAMP or calcium signaling assays, GLP-1 secretion assays, or immunostaining and imaging.
GLUTag cells were seeded into black, clear bottom, poly-D-lysine-coated 96-well plates. Cells were transduced and serum starved as specified above. Growth medium was then replaced with 100 μL/well assay buffer (HBSS, 20 mM HEPES, pH 7.4) and 100 μL/well Calcium 6 loading dye (R8190; Molecular Devices, San Jose, CA, USA). During dye loading, cells were incubated at 37 °C and 5% CO2 for 2 h. MDL29,951 or KCl was added to the wells and fluorescence (485 nm excitation, 525 nm emission, and 515 nm automatic emission cutoff) was measured using a Molecular Devices FlexStation3 (Molecular Devices) at 37 °C. For experiments with PTX, cells were pretreated with 100 ng/mL PTX overnight and 100 ng/mL PTX was included with Calcium 6 loading dye for calcium flux assays. For experiments with YM-254890, cells were pretreated for 30 min at 37 °C.

[2] = tested on: GLUTag cells; assay: GLP-1 secretion from control-transduced or untransduced GLUTag cells; type: cell-based, murine
Method: as §1
(§2) GLUTag cells were seeded into poly-D-lysine-coated 96-well plates and transduced with adenovirus as specified above and then tested for GLP-1 secretion. Medium was removed and cells were washed two times with GLP-1 secretion buffer (138 mM NaCl, 4.5 mM KCl, 4.2 mM NaHCO3, 2.5 mM CaCl2, 1.2 mM MgCl2, 10 mM HEPES, 1 mM glucose, and 0.1% bovine serum albumin, pH 7.4). Cells were stimulated for 2 h with indicated treatments diluted in GLP-1 secretion buffer for a total volume of 200 µL/well at 37 °C and 5% CO2. Plates were then centrifuged at 300× g for 1 min at 4 °C, and 75 µL of the supernatant was removed and frozen at −80 °C until subsequent GLP-1 quantification. Total GLP-1 was quantified using the Meso Scale Discovery Total GLP-1 V-PLEX kit (Rockville, MD, USA; K1503PD) according to manufacturer’s instructions. For PTX treatment conditions, cells were pretreated with 100 ng/mL PTX overnight. For experiments with YM-254890, cells were pretreated for 15 min at 37 °C and 5% CO2.

[3] = biological target: T1, hGPR17S (Homo sapiens, UniProt Q13304); assay: GloSensor cAMP in HEK293 cells transfected with hGPR17S; type: cell-based
T1 construct: host or cells: HEK293 cells (ATCC CRL-1573), transient transfection
T1 sequence (Q13304 29-367): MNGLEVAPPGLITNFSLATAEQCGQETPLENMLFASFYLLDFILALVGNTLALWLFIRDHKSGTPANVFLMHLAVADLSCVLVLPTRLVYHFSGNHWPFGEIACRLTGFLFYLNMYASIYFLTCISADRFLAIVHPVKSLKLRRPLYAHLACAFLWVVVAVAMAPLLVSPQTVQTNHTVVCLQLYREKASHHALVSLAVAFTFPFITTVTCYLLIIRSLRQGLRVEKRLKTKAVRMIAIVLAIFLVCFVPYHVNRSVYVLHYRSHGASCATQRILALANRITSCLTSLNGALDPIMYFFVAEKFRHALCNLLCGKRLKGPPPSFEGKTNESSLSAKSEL
Method: (§3) HEK293 cells were maintained and transfected as previously described.
Live-cell, real-time cAMP measurements were performed using Promega (Madison, WI, USA) GloSensor cAMP luminescent biosensor technology. Glosensor cAMP experiments were conducted as previously described in GLUTag cells and HEK293 cells.

[4] = biological target: T2, mGPR17 (Mus musculus, UniProt Q6NS65); assay: Calcium mobilization in HEK293 cells transfected with mGPR17; type: cell-based
T2 sequence (Q6NS65 whole entry): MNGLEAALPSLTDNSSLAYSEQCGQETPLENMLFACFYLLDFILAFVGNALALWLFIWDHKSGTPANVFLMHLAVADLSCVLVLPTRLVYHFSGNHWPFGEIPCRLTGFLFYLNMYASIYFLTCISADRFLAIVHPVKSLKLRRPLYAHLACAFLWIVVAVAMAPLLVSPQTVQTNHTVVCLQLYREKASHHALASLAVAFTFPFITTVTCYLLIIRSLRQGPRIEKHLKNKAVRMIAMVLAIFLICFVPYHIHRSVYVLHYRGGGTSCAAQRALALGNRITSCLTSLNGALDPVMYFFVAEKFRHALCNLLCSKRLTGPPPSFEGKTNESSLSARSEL
Method: as §3
Calcium flux in HEK293 cells was measured as previously described.

[5] = biological target: hGPR17L (Homo sapiens, UniProt Q13304); assay: Membrane β-arrestin recruitment in HEK293 cells transfected with hGPR17L; type: cell-based
Sequence of hGPR17L (Q13304 whole entry): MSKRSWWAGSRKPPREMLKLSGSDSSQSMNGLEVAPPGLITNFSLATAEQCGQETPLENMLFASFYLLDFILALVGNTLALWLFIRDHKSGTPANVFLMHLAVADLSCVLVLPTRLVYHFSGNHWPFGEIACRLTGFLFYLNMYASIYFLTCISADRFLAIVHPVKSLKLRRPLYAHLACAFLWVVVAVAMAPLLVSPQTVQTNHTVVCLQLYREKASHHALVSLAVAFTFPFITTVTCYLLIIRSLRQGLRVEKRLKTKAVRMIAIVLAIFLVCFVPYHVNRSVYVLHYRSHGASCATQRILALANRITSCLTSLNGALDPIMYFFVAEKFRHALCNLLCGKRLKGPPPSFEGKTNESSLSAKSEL
Method: Membrane β-arrestin recruitment measurements were conducted using a luminescent membrane β-arrestin recruitment reporter assay. HEK293 cells were seeded into white, opaque, poly-D-lysine-coated 96-well plates and transiently transfected using Lipofectamine 3000 (Thermo Fisher Scientific, Waltham, MA, USA) according to the manufacturer’s protocol on the following day. At 48 h post-transfection, cells were washed twice with assay buffer (HBSS, 20 mM HEPES, pH 7.4) and allowed to equilibrate to room temperature for 15 min in assay buffer. Cells were then loaded with coelenterazine h (Nanolight Technology, Prolume Ltd., Lakeside, AZ, USA; 5 µM final concentration) for 5 min in the dark. Luminescence was read using a SpectraMax iD3 (Molecular Devices) with 1 s integration time. Baseline luminescence was read every 2 min for 6 min. Agonist was added and then luminescence was read every 2 min for 30 min.

[6] = biological target: T2, mGPR17; assay: GLP-1 secretion from GLUTag cells expressing mGPR17; type: cell-based; set-up: host or cells: GLUTag cells, adenoviral transduction; settings: 100 µM MDL29,951, GLUTag mGPR17
Method: as §1
as §2, with “Cells were stimulated for 2 h with indicated treatments diluted in GLP-1 secretion buffer for a total volume of 200 µL/well at 37 °C and 5% CO2.” left out, “For PTX treatment conditions, cells were pretreated with 100 ng/mL PTX overnight. For experiments with YM-254890, cells were pretreated for 15 min at 37 °C and 5% CO2.” left out

[7] = HEK293 mGPR17 versus hGPR17L and hGPR17S

Structure (SMILES): O=C(O)CCc1c(C(=O)O)[nH]c2cc(Cl)cc(Cl)c12 [MDL29,951]
- peak ΔF/F, calcium flux ([1]; 30 µM MDL29,951, control-transduced cells): 0.01 ± 0.01
- Mean Diff. ([1]; log [MDL29,951] (M) -4.5 vs. Vehicle): -0.01567
- Mean Diff. ([1]; log [MDL29,951] (M) -5.0 vs. Vehicle): -0.01433
- Mean Diff. ([1]; log [MDL29,951] (M) -5.5 vs. Vehicle): -0.0003333
- Mean Diff. ([1]; log [MDL29,951] (M) -6.0 vs. Vehicle): 0.0006667
- Mean Diff. ([1]; log [MDL29,951] (M) -6.4 vs. Vehicle): 0.01533
- Mean Diff. ([1]; log [MDL29,951] (M) -6.9 vs. Vehicle): 0.002
- Mean Diff. ([1]; log [MDL29,951] (M) -7.4 vs. Vehicle): 0.002667
- Mean Diff. ([1]; log [MDL29,951] (M) -7.9 vs. Vehicle): 0.004333
- Mean Diff. ([1]; log [MDL29,951] (M) -8.3 vs. Vehicle): -0.001667
- Mean Diff. ([1]; log [MDL29,951] (M) -8.8 vs. Vehicle): -0.0003333
- effect on F/I-stimulated GLP-1 secretion ([2]; 100 nM MDL29,951, control-transduced cells): no effect
- effect on GLP-1 secretion under basal conditions ([2]; 100 nM or 100 µM MDL29,951, control-transduced): no effect
- effect on F/I-stimulated GLP-1 secretion ([2]; 100 µM MDL29,951, control adenovirus): no effect
- cAMP Maximum Inhibition (% Inhibition) ([3]; 3 µM forskolin): 48±2.2%
- cAMP Potency (pEC50) (reversal of inhibition) ([3]; 3 µM forskolin): 5.45±0.07
- cAMP Potency (pIC50) ([3]; 3 µM forskolin): 8.83±0.09
- EC50 ([3]; 3 µM forskolin, read-out: cAMP Potency EC50 (reversal of inhibition)): 3600 nM
- IC50 ([3]; 3 µM forskolin-stimulated GloSensor cAMP, read-out: cAMP Potency IC50): 1.5 nM
- cAMP Effect of 100 μM MDL (% Inhibition) ([3]; 100 μM MDL29,951, 3 µM forskolin): 13±3.7%
- Calcium Emax (Mean Peak ΔF/F) ([4]; HEK293 mGPR17): 0.70±0.09
- Calcium Potency (pEC50) ([4]; HEK293 mGPR17): 6.31±0.05
- EC50 ([4]; HEK293 mGPR17, read-out: Calcium Potency EC50): 490 nM
- calcium response potency, fold less potent than human GPR17 isoforms [4, 7]: approximately 10 fold
- reduction in calcium efficacy as compared to human GPR17 isoforms [4, 7]: > 60%
- β-arrestin Emax (Peak ΔRLU/RLU) [5]: 0.50±0.03
- β-arrestin Potency (pEC50) [5]: 6.72±0.09
- EC50 ([5]; read-out: β-arrestin Potency EC50): 190 nM
- effect on F/I-stimulated GLP-1 secretion [6]: significantly inhibited
